The target of experiment [1] is human orexin-2 receptor (Homo sapiens (Human), UniProt O43614). In words: FLIPR Ca2+ Flux Assay, hOX2R. The class given is cell-based. Particulars: CHO cells expressing the receptor; agonist Ala-6,12 human orexin-A. How it is done:
The utility of the compounds in accordance with the present invention as orexin receptor OX1R and/or OX2R antagonists may be readily determined without undue experimentation by methodology well known in the art, including the “FLIPR Ca^2+ Flux Assay” (Okumura et al., Biochem. Biophys. Res. Comm. 280:976-981, 2001). In a typical experiment the OX1 and OX2 receptor antagonistic activity of the compounds of the present invention was determined in accordance with the following experimental method. For intracellular calcium measurements, Chinese hamster ovary (CHO) cells expressing the rat orexin-1 receptor or the human orexin-2 receptor, are grown in Iscove's modified DMEM containing 2 mM L-glutamine, […], 1% hypoxanthine-thymidine supplement, 100 U/ml penicillin, 100 μg/ml streptomycin and 10% heat-inactivated fetal calf serum (FCS). The cells are seeded at 20,000 cells/well into Becton-Dickinson black 384-well clear bottom sterile plates coated with poly-D-lysine. All reagents were from GIBCO-Invitrogen Corp. The seeded plates are incubated overnight at 37° C. and 5% CO2. Ala-6,12 human orexin-A as the agonist is prepared as a 1 mM stock solution in 1% bovine serum albumin (BSA) and diluted in assay buffer (HBSS containing 20 mM HEPES, 0.1% BSA and 2.5 mM probenecid, pH7.4) for use in the assay at a final concentration of 70 pM. Test compounds are prepared as 10 mM stock solution in DMSO, then diluted in 384-well plates, first in DMSO, then assay buffer. On the day of the assay, cells are washed 3 times with 100 μl assay buffer and then incubated for 60 min (37° C., 5% CO2) in 60 μl assay buffer containing 1 μM Fluo-4AM ester, 0.02% pluronic acid, and 1% BSA. The dye loading solution is then aspirated and cells are washed 3 times with 100 μl assay buffer. 30 μl of that same buffer is left in each well. Within the Fluorescent Imaging Plate Reader (FLIPR, Molecular Devices), test compounds are added to the plate in a volume of 25 μl, incubated for 5 min and finally 25 μl of agonist is added. Fluorescence is measured for each well at 1 second intervals for 5 minutes and the height of each fluorescence peak is compared to the height of the fluorescence peak induced by […] Ala-6,12 orexin-A with buffer in place of antagonist. For each antagonist, IC50 value (the concentration of compound needed to inhibit 50% of the agonist response) is determined. Alternatively, compound potency can be assessed by a radioligand binding assay (described in Bergman et. al. Bioorg. Med. Chem. Lett. 2008, 18, 1425-1430) in which the inhibition constant (Ki) is determined in membranes prepared from CHO cells expressing either the OX1 or OX2 receptor. The intrinsic orexin receptor antagonist activity of a compound which may be used in the present invention may be determined by these assays.
In general terms: Calcium assays in cells follow changes in intracellular calcium, usually with a dye or a luminescent sensor.

Experiment [2] has as its target hOX1R (orexin-1 receptor) (Homo sapiens, UniProt O43613). In words: FLIPR Ca2+ Flux Assay, hOX1R. The class given is cell-based. Conditions: CHO cells expressing the receptor; agonist Ala-6,12 human orexin-A.

Chain of human orexin-2 receptor (O43614 whole entry): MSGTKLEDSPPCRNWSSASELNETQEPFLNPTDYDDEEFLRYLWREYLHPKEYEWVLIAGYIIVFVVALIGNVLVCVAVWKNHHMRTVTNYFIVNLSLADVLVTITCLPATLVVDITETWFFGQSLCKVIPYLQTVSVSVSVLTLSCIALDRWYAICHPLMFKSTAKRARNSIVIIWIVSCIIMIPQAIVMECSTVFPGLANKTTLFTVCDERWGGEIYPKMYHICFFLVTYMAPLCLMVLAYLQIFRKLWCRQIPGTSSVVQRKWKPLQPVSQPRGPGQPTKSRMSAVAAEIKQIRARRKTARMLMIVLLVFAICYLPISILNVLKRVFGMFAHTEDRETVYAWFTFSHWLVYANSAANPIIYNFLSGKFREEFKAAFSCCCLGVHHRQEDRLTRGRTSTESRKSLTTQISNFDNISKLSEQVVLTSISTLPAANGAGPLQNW

Regarding `C[C@@H]1CC[C@@H](c2nsc(C(C)(C)O)n2)CN1C(=O)c1cscc1-n1nccn1` [Example 31, 2-{3-[(3R,6R)-6-methyl-1-{[4-(2H-1,2,3-triazol-2-yl)thiophen-3-yl]carbonyl}piperidin-3-yl]-1,2,4-thiadiazol-5-yl}propan-2-ol], the values for the IC50 in experiment [1] and in experiment [2] were 110 nM and over 10000 nM, respectively.

Take `C[C@@H]1CC[C@@H](c2noc(C(C)(C)O)n2)CN1C(=O)c1cscc1-c1ncccn1` [Example 24, 2-(3-{(3R,6R)-6-methyl-1-[(4-pyrimidin-2-ylthiophen-3-yl)carbonyl]piperidin-3-yl}-1,2,4-oxadiazol-5-yl)propan-2-ol]: the 50% inhibitory concentration (IC50) (in general, the concentration that inhibits the measured activity by half) in experiment [1] is 76 nM; in experiment [2], over 10000 nM.

For the molecule `C[C@@H]1CC[C@@H](c2nsc(C(C)(C)O)n2)CN1C(=O)c1ccsc1-n1nccn1` [Example 29, 2-{3-[(3R,6R)-6-Methyl-1-{[2-(2H-1,2,3-triazol-2-yl)thiophen-3-yl]carbonyl}piperidin-3-yl]-1,2,4-thiadiazol-5-yl}propan-2-ol], the IC50 is 88 nM in experiment [1] and over 10000 nM in experiment [2].

As to `C[C@@H]1CC[C@@H](c2nsc(C(C)(C)O)n2)CN1C(=O)c1ccccc1-n1ncnn1` [Example 34, 2-{3-[(3R,6R)-6-methyl-1-{[2-(2H-tetrazol-2-yl)phenyl]carbonyl}piperidin-3-yl]-1,2,4-thiadiazol-5-yl}propan-2-ol], the results for the IC50 in experiment [1] and in experiment [2] were 339 nM and over 10000 nM, respectively.

Regarding `C[C@@H]1CC[C@@H](c2noc(C(C)(C)O)n2)CN1C(=O)c1cscc1-n1nccn1` [Example 14, 2-{3-[(3R,6R)-6-methyl-1-{[4-(2H-1,2,3-triazol-2-yl)thiophen-3-yl]carbonyl}piperidin-3-yl]-1,2,4-oxadiazol-5-yl}propan-2-ol], the IC50 is 48 nM in experiment [1] and over 10000 nM in experiment [2].

As for `CC(C)c1noc([C@@H]2CC[C@@H](C)N(C(=O)c3ccccc3-n3nccn3)C2)n1` [Example 26, (2R,5R)-2-methyl-5-[3-(1-methylethyl)-1,2,4-oxadiazol-5-yl]-1-{[2-(2H-1,2,3-triazol-2-yl)phenyl]carbonyl}piperidine], the IC50 in experiment [1] turned out to be 124 nM; in experiment [2], 4500 nM.

Turning to `C[C@@H]1CC[C@@H](c2noc([C@](C)(O)C(F)(F)F)n2)CN1C(=O)c1ccccc1-n1nccn1` [Example 6, (2S)-1,1,1-trifluoro-2-{3-[(3R,6R)-6-methyl-1-{[2-(2H-1,2,3-triazol-2-yl)phenyl]carbonyl}piperidin-3-yl]-1,2,4-oxadiazol-5-yl}propan-2-ol], the figures for the IC50 in experiment [1] and in experiment [2] were 18 nM and 288 nM, respectively.

As for `CCc1nc([C@@H]2CC[C@@H](C)N(C(=O)c3ccccc3-n3nccn3)C2)no1` [Example 3, (2R,5R)-5-(5-ethyl-1,2,4-oxadiazol-3-yl)-2-methyl-1-{[2-(2H-1,2,3-triazol-2-yl)phenyl]carbonyl}piperidine], the half-inhibitory concentration (IC50) in experiment [1] was 315 nM; in experiment [2] it was over 10000 nM.

For the molecule `COC(C)(C)c1nc([C@@H]2CC[C@@H](C)N(C(=O)c3ccccc3-n3nccn3)C2)ns1` [Example 43, (2R,5R)-5-[5-(1-methoxy-1-methylethyl)-1,2,4-thiadiazol-3-yl]-2-methyl-1-{[2-(2H-1,2,3-triazol-2-yl)phenyl]carbonyl}piperidine], the half-maximal inhibitory concentration (IC50) in experiment [1] came out at 39 nM; in experiment [2], 1410 nM.

Take `CCOc1ccccc1C(=O)N1C[C@H](c2noc(C(C)(C)O)n2)CC[C@H]1C` [Example 19, 2-(3-{(3R,6R)-1-[(2-ethoxyphenyl)carbonyl]-6-methylpiperidin-3-yl}-1,2,4-oxadiazol-5-yl)propan-2-ol]: the IC50 in experiment [1] is 124 nM; in experiment [2], over 10000 nM.

Consider `C[C@@H]1CC[C@@H](c2nsc(C(C)(C)O)n2)CN1C(=O)c1ccccc1OC(F)F` [Example 36, 2-{3-[(3R,6R)-1-{[2-(difluoromethoxy)phenyl]carbonyl}-6-methylpiperidin-3-yl]-1,2,4-thiadiazol-5-yl}propan-2-ol], for which the IC50 in experiment [1] was 243 nM; in experiment [2] it was over 10000 nM.

As for `C[C@@H]1CC[C@@H](c2nsc(C(C)(C)O)n2)CN1C(=O)c1ccccc1-c1ncccn1` [Example 41, 2-(3-{(3R,6R)-6-Methyl-1-[(2-pyrimidin-2-ylphenyl)carbonyl]piperidin-3-yl}-1,2,4-thiadiazol-5-yl)propan-2-ol], the IC50 in experiment [1] is 48 nM; in experiment [2], over 10000 nM.

In the case of `C[C@@H]1CC[C@@H](c2nc(C(C)(C)O)no2)CN1C(=O)c1ccccc1-n1nccn1` [Example 27, 2-{5-[(3R,6R)-6-methyl-1-{[2-(2H-1,2,3-triazol-2-yl)phenyl]carbonyl}piperidin-3-yl]-1,2,4-oxadiazol-3-yl}propan-2-ol], the values for the IC50 in experiment [1] and in experiment [2] were 75 nM and over 10000 nM, respectively.

For `C[C@@H]1CC[C@@H](c2nsc(C(C)(C)O)n2)CN1C(=O)c1ccccc1-n1nccn1` [Example 35, 2-{3-[(3R,6R)-6-methyl-1-{[2-(2H-1,2,3-triazol-2-yl)phenyl]carbonyl}piperidin-3-yl]-1,2,4-thiadiazol-5-yl}propan-2-ol], the results for the IC50 in experiment [1] and in experiment [2] were 27 nM and 2380 nM, respectively.

For `C[C@@H]1CC[C@@H](c2nsc(C(C)(C)O)n2)CN1C(=O)c1ccsc1-c1ncccn1` [Example 40, 2-(3-{(3R,6R)-6-Methyl-1-[(2-pyrimidin-2-ylthiophen-3-yl)carbonyl]piperidin-3-yl}-1,2,4-thiadiazol-5-yl)propan-2-ol], the IC50 in experiment [1] worked out at 50 nM; in experiment [2], 9990 nM.

Turning to `C[C@@H]1CC[C@@H](c2noc(C(C)(C)O)n2)CN1C(=O)c1ccccc1-n1nccn1` [Example 5, 2-{3-[(3R,6R)-6-Methyl-1-{[2-(2H-1,2,3-triazol-2-yl)phenyl]carbonyl}piperidin-3-yl]-1,2,4-oxadiazol-5-yl}propan-2-ol], the values for the IC50 in experiment [1] and in experiment [2] were 19 nM and 3180 nM, respectively.

On to `C[C@@H]1CC[C@@H](c2noc(C(C)(C)O)n2)CN1C(=O)c1ccccc1OC(F)(F)F` [Example 15, 2-{3-[(3R,6R)-6-methyl-1-{[2-(trifluoromethoxy)phenyl]carbonyl}piperidin-3-yl]-1,2,4-oxadiazol-5-yl}propan-2-ol], for which the IC50 in experiment [1] is 86 nM; in experiment [2], over 10000 nM.

With `C[C@@H]1CC[C@@H](c2nc(C(C)(C)C)no2)CN1C(=O)c1ccccc1-n1nccn1` [Example 25, (2R,5R)-5-(3-tert-Butyl-1,2,4-oxadiazol-5-yl)-2-methyl-1-{[2-(2H-1,2,3-triazol-2-yl)phenyl]carbonyl}piperidine], the values for the IC50 in experiment [1] and in experiment [2] were 87 nM and 1150 nM, respectively.

Consider `C[C@@H]1CC[C@@H](c2noc([C@H](O)C(F)(F)F)n2)CN1C(=O)c1ccccc1-n1nccn1` [Example 7, (1S)-2,2,2-trifluoro-1-{3-[(3R,6R)-6-methyl-1-{[2-(2H-1,2,3-triazol-2-yl)phenyl]carbonyl}piperidin-3-yl]-1,2,4-oxadiazol-5-yl}ethanol], for which the IC50 was determined as 22 nM in experiment [1] and 456 nM in experiment [2].

On to `C[C@@H]1CC[C@@H](c2noc(C(C)(C)C)n2)CN1C(=O)c1ccccc1-n1nccn1` [Example 2, (2R,5R)-5-(5-tert-butyl-1,2,4-oxadiazol-3-yl)-2-methyl-1-{[2-(2H-1,2,3-triazol-2-yl)phenyl]carbonyl}piperidine], for which the IC50 stood at 29 nM in experiment [1] and 516 nM in experiment [2].

With `C[C@@H]1CC[C@@H](c2noc(C(C)(C)O)n2)CN1C(=O)c1ccccc1OC(F)F` [Example 18, 2-{3-[(3R,6R)-1-{[2-(difluoromethoxy)phenyl]carbonyl}-6-methylpiperidin-3-yl]-1,2,4-oxadiazol-5-yl}propan-2-ol], the IC50 in experiment [1] was 140 nM; in experiment [2], over 10000 nM.

Molecule `C[C@@H]1CC[C@@H](c2nsc(C(C)(C)O)n2)CN1C(=O)c1cccnc1OCC(F)(F)F` [Example 38, 2-{3-[(3R,6R)-6-methyl-1-{[2-(2,2,2-trifluoroethoxy)pyridin-3-yl]carbonyl}piperidin-3-yl]-1,2,4-thiadiazol-5-yl}propan-2-ol] came in with a concentration for half-maximal inhibition (IC50) in experiment [1] of 124 nM.

The record behind these values is patent US10308645B2, “Piperidine oxadiazole and thiadiazole orexin receptor antagonists” (MERCK SHARP & DOHME CORP., priority 2014, dated 2019).
